From US8765994B2, “Ship 1 modulators” (The University of British Columbia, priority 2001, dated 2014)

Columns and labels:
[1] = target: T1, SHIP 1 enzyme (Homo sapiens, UniProt Q92835); test: SHIP 1 enzyme assay (inorganic phosphate release, malachite green); type: biochemical; settings: FIG. 1
T1 construct: hemagglutinin (HA); hexahistidine (His6); made in house
T1 sequence (Q92835 1-1189): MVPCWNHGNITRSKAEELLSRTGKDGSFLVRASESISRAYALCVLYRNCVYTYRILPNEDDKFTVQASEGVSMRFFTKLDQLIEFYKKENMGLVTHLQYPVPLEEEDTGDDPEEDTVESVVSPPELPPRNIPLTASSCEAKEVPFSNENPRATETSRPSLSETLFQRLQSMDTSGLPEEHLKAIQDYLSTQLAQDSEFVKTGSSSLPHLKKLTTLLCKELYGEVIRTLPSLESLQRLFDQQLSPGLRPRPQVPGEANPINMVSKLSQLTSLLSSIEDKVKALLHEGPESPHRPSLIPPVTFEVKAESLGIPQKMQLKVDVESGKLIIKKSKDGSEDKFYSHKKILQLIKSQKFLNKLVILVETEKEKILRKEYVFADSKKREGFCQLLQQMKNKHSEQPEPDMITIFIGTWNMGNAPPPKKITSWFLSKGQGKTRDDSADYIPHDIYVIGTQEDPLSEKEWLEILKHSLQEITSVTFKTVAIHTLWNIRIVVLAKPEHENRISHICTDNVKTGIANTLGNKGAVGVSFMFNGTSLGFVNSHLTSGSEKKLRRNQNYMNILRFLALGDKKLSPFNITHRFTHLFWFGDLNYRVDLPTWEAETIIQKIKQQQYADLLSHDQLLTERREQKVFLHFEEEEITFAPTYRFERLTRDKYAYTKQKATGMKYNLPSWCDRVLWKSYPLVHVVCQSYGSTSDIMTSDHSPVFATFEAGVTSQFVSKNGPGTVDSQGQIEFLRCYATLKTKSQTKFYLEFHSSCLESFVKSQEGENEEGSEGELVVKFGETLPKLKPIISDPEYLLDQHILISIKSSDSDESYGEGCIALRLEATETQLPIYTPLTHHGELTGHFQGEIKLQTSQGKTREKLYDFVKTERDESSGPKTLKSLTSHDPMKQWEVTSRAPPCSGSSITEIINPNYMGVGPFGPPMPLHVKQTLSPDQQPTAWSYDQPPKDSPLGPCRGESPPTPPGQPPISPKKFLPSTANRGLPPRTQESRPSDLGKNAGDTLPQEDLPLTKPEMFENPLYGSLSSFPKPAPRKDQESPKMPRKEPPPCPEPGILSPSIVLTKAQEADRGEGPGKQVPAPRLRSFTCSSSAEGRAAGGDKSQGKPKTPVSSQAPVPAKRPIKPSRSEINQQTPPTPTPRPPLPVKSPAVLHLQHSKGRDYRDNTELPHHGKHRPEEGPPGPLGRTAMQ
Description: The assay was performed in 96-well microtitre plates. SHIP 1 enzyme was produced with a hemagglutinin and a hexahistidine tag, from a mammalian expression vector. The His tag was employed to enhance purification. SHIP 1 enzyme (10 ng) was incubated with extract or DMSO for 15 minutes at room temperature before addition of 200 µM inositol-1,3,4,5-tetrakisphosphate. The reaction was allowed to proceed for 20 minutes at 37 degrees C. The amount of inorganic phosphate released was then assessed by the addition of malachite green reagent followed by an absorbance measurement at 650 nm.

[2] = system: SHIP 1−/− macrophages; test: Macrophage NO release assay in SHIP 1-/- macrophages; type: cell-based; settings: FIG. 2
Description: For the NO release assay, wild-type or SHIP 1−/− macrophage cells were aliquoted into microtitre plates (5×10^4/well) and activated with […] endotoxin (LPS) in the presence or absence of test compound or DMSO carrier. The cells were incubated at 37° C., 5% CO2 for 24 hours and the culture supernatant was removed for NO determination using the Griess reagent. Alternatively, J774.1a macrophage cells were treated with 10 ng/ml of test compound dissolved in DMSO for 40 minutes prior to the addition of LPS. Culture supernatants were collected after 24 hr. for determination of NO concentration using the Griess reagent.

[3] = system: bone marrow derived mast cells; test: Mast cell activation assay (β-hexosaminidase release); type: cell-based; settings: FIG. 3
Description: For the mast cell activation assay, bone marrow derived mast cells were incubated at 4° C. with anti-DNP IgE for 1 hr. They were then washed twice with 23° C. Tyrode's buffer, and incubated in the presence of test compound or vehicle control for 30 minutes before a 15 minute treatment with DNP-human serum albumin. The degree of degranulation was determined by measuring the release of β-hexosaminidase.

[4] = system: antitrypanosomal; settings: reported in literature; cited from earlier work
[5] = system: antiplasmodial; settings: reported in literature; cited from earlier work

COC(=O)c1cc(O)c(O)c2c1[C@]1(C)CC[C@H]3C(C)(C)CCC[C@]3(C)[C@H]1C2 [Pelorol, pelorol]
Activation of SHIP 1 in enzyme assay (assay-guided fractionation) [1]: active compound
Inhibition of NO release in SHIP 1−/− macrophages [2]: not observed
IgE induced mast cell degranulation [3]: significantly reduced
antitrypanosomal effects [4]: weak
antiplasmodial effects [5]: weak
